In patent US6737383B1, “Herbicidal oxadiazolidines” (priority 1999, dated 2004):

Tests used:
sugar beet = test: Test B pre/postemergence sugar beet; assay type: in vivo, Beta vulgaris
Procedure, shortened: (§1)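 Test chemicals in a non-phytotoxic solvent mixture with surfactant were sprayed preemergence onto planted seeds and postemergence onto plants 2 to 18 cm tall (1- to 4-leaf stage). After twelve to sixteen days in a greenhouse, injury was visually rated against untreated controls from 0 (no effect) to 10 (complete control).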

wild oat = test: Test B pre/postemergence wild oat; assay type: in vivo, Avena fatua
Procedure, shortened: as §1

corn = test: Test B pre/postemergence corn; assay type: in vivo, Zea mays
Procedure, shortened: as §1

crabgrass = test: Test B pre/postemergence crabgrass; assay type: in vivo, Digitaria sanguinalis
Procedure, shortened: as §1

bedstraw = test: Test B pre/postemergence bedstraw; assay type: in vivo, Galium aparine
Procedure, shortened: as §1

soybean = test: Test B pre/postemergence soybean; assay type: in vivo, Glycine max
Procedure, shortened: as §1

giant foxtail = test: Test B pre/postemergence giant foxtail; assay type: in vivo, Setaria faberii
Procedure, shortened: as §1

blackgrass = test: Test B pre/postemergence blackgrass; assay type: in vivo, Alopecurus myosuroides
Procedure, shortened: as §1

morningglory = test: Test B pre/postemergence morningglory; assay type: in vivo, Ipomoea hederacea
Procedure, shortened: as §1

cocklebur = test: Test B pre/postemergence cocklebur; assay type: in vivo, Xanthium strumarium
Procedure, shortened: as §1

velvetleaf = test: Test B pre/postemergence velvetleaf; assay type: in vivo, Abutilon theophrasti
Procedure, shortened: as §1

purple nutsedge = test: Test B pre/postemergence purple nutsedge; assay type: in vivo, Cyperus rotundus
Procedure, shortened: as §1

wheat = test: Test B pre/postemergence wheat; assay type: in vivo, Triticum aestivum
Procedure, shortened: as §1

surinam grass = test: Test B pre/postemergence surinam grass; assay type: in vivo, Brachiaria decumbens
Procedure, shortened: as §1

pigweed = test: Test B pre/postemergence pigweed; assay type: in vivo, Amaranthus retroflexus
Procedure, shortened: as §1

rape = test: Test B pre/postemergence rape; assay type: in vivo, Brassica napus
Procedure, shortened: as §1

[1] = Postemergence, Rate 125 g/ha, scale of 0 to 10 where 0 is no effect and 10 is complete control
[2] = Preemergence, Rate 62 g/ha, scale of 0 to 10 where 0 is no effect and 10 is complete control
[3] = Preemergence, Rate 125 g/ha, 0 is no effect, 10 is complete control
[4] = Preemergence, Rate 250 g/ha, scale 0 to 10, 0 is no effect, 10 is complete control
[5] = Preemergence, Rate 500 g/ha, scale 0 to 10 (0 no effect, 10 complete control)
[6] = Rate 62 g/ha, Postemergence, scale of 0 to 10 where 0 is no effect and 10 is complete control
[7] = Rate 250 g/ha, Postemergence, scale 0 to 10, 0 is no effect, 10 is complete control
[8] = Rate 500 g/ha, Postemergence, scale 0 to 10

Compound: CC(C)N(C(=O)n1oc(=O)n([C@@H](C)c2ccccc2)c1=O)c1ccccc1 [Compound 168]
- Sugarbeets plant response rating (sugar beet; [1]): 0
- Sugarbeets plant response rating (sugar beet; [2]): 0
- Sugarbeets plant response rating (0 to 10 scale) (sugar beet; [3]): 0
- Sugarbeets plant response rating (sugar beet; [4]): 4
- Sugarbeets plant response rating (sugar beet; [5]): 7
- Sugarbeets plant response rating (sugar beet; [6]): 0
- Plant response rating, Sugarbeets (sugar beet; [7]): 0
- Sugarbeets plant response rating (sugar beet; [8]): 0
- Wild oats plant response rating (wild oat; [2]): 0
- Wild oats plant response rating (0 to 10 scale) (wild oat; [3]): 0
- Wild oats plant response rating (wild oat; [4]): 1
- Wild oats plant response rating (wild oat; [5]): 3
- Plant response rating, Wild oats (wild oat; [7]): 0
- Wild oats plant response rating (wild oat; [8]): 0
- Corn plant response rating (corn; [1]): 0
- Corn plant response rating (corn; [2]): 0
- Corn plant response rating (0 to 10 scale) (corn; [3]): 0
- Corn plant response rating (corn; [4]): 0
- Corn plant response rating (corn; [5]): 0
- Corn plant response rating (corn; [6]): 0
- Plant response rating, Corn (corn; [7]): 0
- Corn plant response rating (corn; [8]): 0
- Crabgrass plant response rating (crabgrass; [1]): 1
- Crabgrass plant response rating (crabgrass; [2]): 0
- Crabgrass plant response rating (0 to 10 scale) (crabgrass; [3]): 3
- Crabgrass plant response rating (crabgrass; [4]): 7
- Crabgrass plant response rating (crabgrass; [5]): 7
- Crabgrass plant response rating (crabgrass; [6]): 0
- Plant response rating, Crabgrass (crabgrass; [7]): 2
- Crabgrass plant response rating (crabgrass; [8]): 9
- Bedstraw plant response rating (bedstraw; [1]): 3
- Bedstraw plant response rating (bedstraw; [2]): 0
- Bedstraw plant response rating (0 to 10 scale) (bedstraw; [3]): 0
- Bedstraw plant response rating (bedstraw; [4]): 0
- Bedstraw plant response rating (bedstraw; [5]): 0
- Bedstraw plant response rating (bedstraw; [6]): 3
- Plant response rating, Bedstraw (bedstraw; [7]): 8
- Soybean plant response rating (soybean; [1]): 1
- Soybean plant response rating (soybean; [2]): 0
- Soybean plant response rating (0 to 10 scale) (soybean; [3]): 0
- Soybean plant response rating (soybean; [4]): 0
- Soybean plant response rating (soybean; [5]): 0
- Soybean plant response rating (soybean; [6]): 1
- Plant response rating, Soybean (soybean; [7]): 2
- Soybean plant response rating (soybean; [8]): 2
- Giant foxtail plant response rating (giant foxtail; [1]): 0
- Giant foxtail plant response rating (giant foxtail; [2]): 6
- Giant foxtail plant response rating (0 to 10 scale) (giant foxtail; [3]): 8
- Giant foxtail plant response rating (giant foxtail; [4]): 10
- Giant foxtail plant response rating (giant foxtail; [5]): 10
- Giant foxtail plant response rating (giant foxtail; [6]): 0
- Plant response rating, Giant foxtail (giant foxtail; [7]): 1
- Giant foxtail plant response rating (giant foxtail; [8]): 3
- Blackgrass plant response rating (blackgrass; [1]): 0
- Blackgrass plant response rating (blackgrass; [2]): 0
- Blackgrass plant response rating (0 to 10 scale) (blackgrass; [3]): 1
- Blackgrass plant response rating (blackgrass; [4]): 2
- Blackgrass plant response rating (blackgrass; [5]): 2
- Blackgrass plant response rating (blackgrass; [6]): 0
- Plant response rating, Blackgrass (blackgrass; [7]): 2
- Blackgrass plant response rating (blackgrass; [8]): 7
- Morningglory plant response rating (morningglory; [1]): 8
- Morningglory plant response rating (morningglory; [2]): 0
- Morningglory plant response rating (0 to 10 scale) (morningglory; [3]): 0
- Morningglory plant response rating (morningglory; [4]): 0
- Morningglory plant response rating (morningglory; [5]): 0
- Morningglory plant response rating (morningglory; [6]): 7
- Plant response rating, Morningglory (morningglory; [7]): 10
- Morningglory plant response rating (morningglory; [8]): 10
- Cocklebur plant response rating (cocklebur; [1]): 0
- Cocklebur plant response rating (cocklebur; [2]): 0
- Cocklebur plant response rating (0 to 10 scale) (cocklebur; [3]): 0
- Cocklebur plant response rating (cocklebur; [4]): 0
- Cocklebur plant response rating (cocklebur; [5]): 0
- Cocklebur plant response rating (cocklebur; [6]): 0
- Plant response rating, Cocklebur (cocklebur; [7]): 2
- Cocklebur plant response rating (cocklebur; [8]): 2
- Velvetleaf plant response rating (velvetleaf; [2]): 0
- Velvetleaf plant response rating (0 to 10 scale) (velvetleaf; [3]): 0
- Velvetleaf plant response rating (velvetleaf; [4]): 0
- Velvetleaf plant response rating (velvetleaf; [5]): 6
- Plant response rating, Velvetleaf (velvetleaf; [7]): 1
- Velvetleaf plant response rating (velvetleaf; [8]): 1
- Nutsedge plant response rating (purple nutsedge; [1]): 0
- Nutsedge plant response rating (purple nutsedge; [2]): 0
- Nutsedge plant response rating (0 to 10 scale) (purple nutsedge; [3]): 0
- Nutsedge plant response rating (purple nutsedge; [4]): 0
- Nutsedge plant response rating (purple nutsedge; [5]): 0
- Nutsedge plant response rating (purple nutsedge; [6]): 0
- Plant response rating, Nutsedge (purple nutsedge; [7]): 0
- Nutsedge plant response rating (purple nutsedge; [8]): 0
- Wheat plant response rating (wheat; [2]): 0
- Wheat plant response rating (0 to 10 scale) (wheat; [3]): 0
- Wheat plant response rating (wheat; [4]): 0
- Wheat plant response rating (wheat; [5]): 0
- Plant response rating, Wheat (wheat; [7]): 0
- Wheat plant response rating (wheat; [8]): 0
- B. signalgrass plant response rating (surinam grass; [1]): 0
- B. signalgrass plant response rating (surinam grass; [2]): 0
- B. signalgrass plant response rating (0 to 10 scale) (surinam grass; [3]): 2
- B. signalgrass plant response rating (surinam grass; [4]): 2
- B. signalgrass plant response rating (surinam grass; [5]): 5
- B. signalgrass plant response rating (surinam grass; [6]): 0
- Plant response rating, B. signalgrass (surinam grass; [7]): 0
- B. signalgrass plant response rating (surinam grass; Rate 500 g/ha, Postemergence, scale 0 to 10, 0 no effect, 10 complete control): 0
- Redroot pigweed plant response rating (pigweed; [1]): 0
- Redroot pigweed plant response rating (pigweed; [2]): 0
- Redroot pigweed plant response rating (0 to 10 scale) (pigweed; [3]): 0
- Redroot pigweed plant response rating (pigweed; [4]): 0
- Redroot pigweed plant response rating (pigweed; [5]): 0
- Redroot pigweed plant response rating (pigweed; [6]): 0
- Plant response rating, Redroot pigweed (pigweed; [7]): 0
- Redroot pigweed plant response rating (pigweed; [8]): 0
- Rape plant response rating (rape; [1]): 0
- Rape plant response rating (rape; [2]): 0
- Rape plant response rating (0 to 10 scale) (rape; [3]): 0
- Rape plant response rating (rape; [4]): 0
- Rape plant response rating (rape; [5]): 0
- Rape plant response rating (rape; [6]): 0
- Plant response rating, Rape (rape; [7]): 0
- Rape plant response rating (rape; [8]): 0
